Literature values as cited in patent US6387949B1, “Substituted urea compounds useful in pain management” (AstraZeneca Canada Inc., priority 1998, dated 2002).

Experiments:
[1] = background statement
[2] = biological target: δ receptor (Homo sapiens, UniProt P41143); settings: background statement
Sequence of δ receptor (P41143 whole entry): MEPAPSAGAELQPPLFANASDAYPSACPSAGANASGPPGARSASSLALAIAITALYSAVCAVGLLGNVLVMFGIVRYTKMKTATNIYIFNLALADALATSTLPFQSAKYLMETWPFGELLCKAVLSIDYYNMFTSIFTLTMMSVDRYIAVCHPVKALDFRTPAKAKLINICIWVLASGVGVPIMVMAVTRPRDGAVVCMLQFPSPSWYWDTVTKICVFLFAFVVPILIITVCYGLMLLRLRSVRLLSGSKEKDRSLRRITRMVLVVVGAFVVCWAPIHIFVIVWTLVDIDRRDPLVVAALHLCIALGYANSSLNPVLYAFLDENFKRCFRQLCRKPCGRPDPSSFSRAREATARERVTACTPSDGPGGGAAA

In the case of `Oc1ccc2c3c1O[C@H]1c4[nH]c5ccccc5c4C[C@@]4(O)[C@@H](C2)N(CC2CC2)CC[C@]314` [naltrindole], the analgesic activity [1] is listed as “no analgesic activity” and the “selectivity for the δ receptor vs. μ receptor binding” value [2] is listed as less than 10 fold.
